Data published in PubChem BioAssay (NCI).
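Following 48 hours of exposure in 96-well plates, responses at five concentrations were used to interpolate endpoints linearly. GI50 = concentration required for 50% inhibition of growth. The concentration for full growth arrest is given as TGI.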

Columns and labels:
Experiment in all cases: NCI-60 cell line screen, 48 h
[1] = tested on: A498 renal
[2] = tested on: UACC-257 melanoma
[3] = tested on: HL-60(TB) leukemia
[4] = tested on: OVCAR-5 ovarian
[5] = tested on: SK-MEL-2 melanoma
[6] = tested on: MOLT-4 leukemia
[7] = tested on: TK-10 renal
[8] = tested on: NCI-H460 lung
[9] = tested on: RXF 393 renal
[10] = tested on: BT-549 breast
[11] = tested on: SF-539 CNS
[12] = tested on: HCT-116 colon
[13] = tested on: K-562 leukemia
[14] = tested on: RPMI-8226 leukemia
[15] = tested on: HT29 colon
[16] = tested on: MDA-MB-231 breast
[17] = tested on: 786-0 renal
[18] = tested on: A549 NSCLC
[19] = tested on: MDA-MB-468 breast
[20] = tested on: SK-MEL-28 melanoma
[21] = tested on: SF-295 CNS
[22] = tested on: SR leukemia
[23] = tested on: CCRF-CEM leukemia
[24] = tested on: DU-145 prostate
[25] = tested on: UACC-62 melanoma
[26] = tested on: M14 melanoma
[27] = tested on: UO-31 renal
[28] = tested on: IGROV1 ovarian
[29] = tested on: HCC-2998 colon
[30] = tested on: HS 578T breast
[31] = tested on: SF-268 CNS
[32] = tested on: SK-MEL-5 melanoma
[33] = tested on: NCI-H522 lung
[34] = tested on: OVCAR-3 ovarian
[35] = tested on: SNB-75 CNS
[36] = tested on: SW-620 colon
[37] = tested on: SK-OV-3 ovarian
[38] = tested on: ACHN renal
[39] = tested on: HOP-62 NSCLC
[40] = tested on: T-47D breast
[41] = tested on: OVCAR-8 ovarian
[42] = tested on: SNB-19 CNS
[43] = tested on: SN12C renal
[44] = tested on: NCI-H226 lung
[45] = tested on: KM12 colon
[46] = tested on: HCT-15 colon
[47] = tested on: MALME-3M melanoma
[48] = tested on: LOX IMVI melanoma
[49] = tested on: COLO 205 colon
[50] = tested on: CAKI-1 renal
[51] = tested on: OVCAR-4 ovarian
[52] = tested on: NCI-H23 lung
[53] = tested on: MCF7 breast
[54] = tested on: MDA-MB-435

## Cn1cc(-c2cc(N)n3nc(-c4c[nH]c5ccc(Br)cc45)cc3n2)c2cc(Br)cnc21
[1]
  GI50: 1550 nM
  TGI: 3420 nM
[2]
  GI50: 2000 nM
  TGI: 4310 nM
[3]
  GI50: 1790 nM
  TGI: 4330 nM
[4]
  GI50: 2030 nM
  TGI: 4440 nM
[5]
  GI50: 1790 nM
  TGI: 3740 nM
[6]
  GI50: 2110 nM
  TGI: 10600 nM
[7]
  GI50: 1780 nM
  TGI: 3990 nM
[8]
  GI50: 1960 nM
  TGI: 4030 nM
[9]
  GI50: 1890 nM
  TGI: 3690 nM
[10]
  GI50: 2190 nM
  TGI: 4360 nM
[11]
  GI50: 1640 nM
  TGI: 3160 nM
[12]
  GI50: 1910 nM
  TGI: 4250 nM
[13]
  GI50: 1890 nM
  TGI: 5880 nM
[14]
  GI50: 2230 nM
  TGI: 7800 nM
[15]
  GI50: 1970 nM
  TGI: 3840 nM
[16]
  GI50: 1780 nM
  TGI: 3540 nM
[17]
  GI50: 1640 nM
  TGI: 3130 nM
[18]
  GI50: 1840 nM
  TGI: 3870 nM
[19]
  GI50: 1360 nM
  TGI: 2770 nM
[20]
  GI50: 1820 nM
  TGI: 3640 nM
[21]
  GI50: 1880 nM
  TGI: 4290 nM
[22]
  GI50: 1930 nM
  TGI: 5870 nM
[23]
  GI50: 1610 nM
  TGI: 4260 nM
[24]
  GI50: 1820 nM
  TGI: 3530 nM
[25]
  GI50: 1600 nM
  TGI: 3070 nM
[26]
  GI50: 1690 nM
  TGI: 3550 nM
[27]
  GI50: 1620 nM
  TGI: 3360 nM
[28]
  GI50: 1960 nM
  TGI: 4110 nM
[29]
  GI50: 1760 nM
  TGI: 3240 nM
[30]
  GI50: 2290 nM
  TGI: 5360 nM
[31]
  GI50: 2250 nM
  TGI: 5710 nM
[32]
  GI50: 2080 nM
  TGI: 4490 nM
[33]
  GI50: 1700 nM
  TGI: 3560 nM
[34]
  GI50: 1670 nM
  TGI: 3130 nM
[35]
  GI50: 1460 nM
  TGI: 3240 nM
[36]
  GI50: 1880 nM
  TGI: 3740 nM
[37]
  GI50: 2540 nM
  TGI: 7270 nM
[38]
  GI50: 1660 nM
  TGI: 3120 nM
[39]
  GI50: 1680 nM
  TGI: 3340 nM
[40]
  GI50: 1800 nM
  TGI: 4330 nM
[41]
  GI50: 2010 nM
  TGI: 4220 nM
[42]
  GI50: 2150 nM
  TGI: 4760 nM
[43]
  GI50: 1720 nM
  TGI: 3360 nM
[44]
  GI50: 2510 nM
  TGI: 7340 nM
[45]
  GI50: 1590 nM
  TGI: 3160 nM
[46]
  GI50: 1690 nM
  TGI: 3800 nM
[47]
  GI50: 1890 nM
  TGI: 3520 nM
[48]
  GI50: 1700 nM
  TGI: 3290 nM
[49]
  GI50: 1820 nM
  TGI: 3360 nM
[50]
  GI50: 1490 nM
  TGI: 3770 nM
[51]
  GI50: 1950 nM
  TGI: 3930 nM
[52]
  GI50: 1760 nM
  TGI: 3600 nM
[53]
  GI50: 1800 nM
  TGI: 3630 nM
[54]
  GI50: 1710 nM
  TGI: 3210 nM
